In patent US12427114B2, “Orodispersible dosage unit containing an estetrol component” (ESTETRA SRL, priority 2015, dated 2025):

Columns and labels:
estrogen receptors = conditions: in vitro; cited from earlier work
DMBA mammary tumour = conditions: extent and dose level similar to tamoxifen and to ovariectomy; cited from earlier work
[1] = Randomized, open-label, two-period, cross-over pharmacokinetic study, sublingual versus oral 10 mg estetrol tablet; type: in vivo, human; conditions: 10 mg estetrol sublingual vs oral; healthy female volunteers
Procedure: A randomized, open-label, two-period, cross-over, pharmacokinetic study is conducted to compare sublingual bioavailability of 10 mg estetrol administered in one 80 mg tablet (having the same composition as the tablets described in Example 4, Formulation E) with oral availability of estetrol contained in a 83 mg tablet containing 10 mg estetrol. These tablets are administered sublingually and orally to healthy female volunteers under fasting conditions.
Ten healthy female subjects are selected on the basis of the following criteria: age of 45-65 years (inclusive), nonsmokers or past smokers (at least 6 months before dosing), body-mass index (BMI)=18.5 to 30 kg/m^2 (inclusive at the time of the screening).
At the start of the first and the second period of the study, between 07:00 am and 07:28 am, 5 subjects receive a single dose of the sublingual formulation of estetrol by administering one estetrol tablet (tablet weight 80 mg; 10 mg estetrol) and 5 subjects receive a single oral dose of the oral estetrol formulation by administering one estetrol tablet (tablet weight 83 mg; 10 mg estetrol), ingested together with 200 ml water. […]
The estetrol concentration in the collected blood samples is determined by means of HPLC/MS/MS. The concentrations of glucuronided estetrol (D-ring) in the urine samples is also determined with the help of HPLC/MS/MS.

[2] = humans; cited from earlier work
[3] = target: T1, sex hormone binding globulin (SHBG) (Homo sapiens, UniProt P04278); conditions: cited from earlier work
T1 sequence (P04278 30-402): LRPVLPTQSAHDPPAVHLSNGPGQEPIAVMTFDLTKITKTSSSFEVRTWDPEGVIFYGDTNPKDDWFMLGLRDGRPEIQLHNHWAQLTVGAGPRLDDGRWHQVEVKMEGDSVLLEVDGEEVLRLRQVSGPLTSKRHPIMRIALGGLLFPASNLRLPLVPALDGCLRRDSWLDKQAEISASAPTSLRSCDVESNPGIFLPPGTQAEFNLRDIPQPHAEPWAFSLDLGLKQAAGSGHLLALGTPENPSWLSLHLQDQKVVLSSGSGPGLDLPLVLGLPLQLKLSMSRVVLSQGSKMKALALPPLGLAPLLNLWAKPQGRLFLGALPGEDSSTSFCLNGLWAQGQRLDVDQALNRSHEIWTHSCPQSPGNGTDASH

[4] = system: human breast cancer cells; conditions: in vitro; cited from earlier work
production of SHBG = conditions: in vitro; cited from earlier work
[5] = system: vagina, uterus, body weight, bone mass, bone strength, hot flushes, ovulation; conditions: ovulation (inhibition), dose-dependent; cited from earlier work

Q: Which “Estrogen receptor binding selectivity” value (estrogen receptors) does the source give for `C[C@]12CC[C@@H]3c4ccc(O)cc4CC[C@H]3[C@@H]1[C@@H](O)[C@@H](O)[C@@H]2O` [estetrol, 1,3,5 (10)-estratrien-3,15α,16α, 17β-tetrol] here?
A: binds highly selective to the estrogen receptors with preference for the ERα form

Q: What about the Tumour development (DMBA mammary tumour) of the same molecule?
A: prevented tumour development

Q: What about the “Impact on a liver function parameter, sublingual compared with oral” value [1] of the same molecule?
A: less impact on a liver function parameter

Q: And the Oral bioavailability [2]?
A: high and dose-proportional

Q: What about the Terminal elimination half-life [2] of the same molecule?
A: about 28 hours

Q: And the “Binding to SHBG” value [3]?
A: does not bind

Q: And the “Effect in the presence of 17β-estradiol” value [4]?
A: anti-estrogenic effect

Q: And the “Stimulation of the production of SHBG” value (production of SHBG)?
A: does not stimulate

Q: What about the “Estrogenic effects in rat models” value [5] of the same molecule?
A: exhibited estrogenic effects
